By pIC50 is commonly meant −log10 of the IC50, conventionally taken in molar units.

Experiment [1] has as its system PVP with Wuhan variant S-protein.
The test system of experiment [2] is live SARS-CoV-2 virus (variant B.1.1).
Experiment [3] relates to full-length SARS-CoV-2 S protein (Wuhan variant). In words: Competition of P1st with FAM-labeled peptides for S protein binding (fluorescent immunoassay). The following applies: P1st at 25 μM; P1-FAM 3.25 to 25 μM; fluorescence intensity; result in words.
For experiment [4], the system named is full-length S protein of SARS-CoV-2 (Wuhan variant). It counts as binding. The following applies: S protein 1 μg/mL coated; peptide incubated 2 h at RT; fluorescence 483 nm excitation/530 nm emission; result in words.
The test system is the same in experiment [5]. In words: Immunosorbent assay of P2 binding to immobilized S protein, detected with anti-P1 antibodies. The note with it: P2 incubated 2 h at 37 °C; anti-P1 antibody 1 μg/mL, anti-rabbit IgG-HRP, TMB, A450-620; result in words.

pIC50: −log10 of the molar value. Where a SMILES comes first, the peptide text is derived from it. Bridges are numbered along the chain shown (N, C = ends). [ ]: non-standard residue; d: D form. S5 = C=CCCC[C@](C)(N)C(=O)O

With `CC[C@H](C)[C@H](NC(=O)[C@@H](NC(=O)[C@H](CO)NC(C)=O)[C@@H](C)O)C(=O)N[C@@H](CCC(=O)O)C(=O)N[C@@H](CCC(=O)O)C(=O)N[C@@H](CCC(N)=O)C(=O)N[C@@H](C)C(=O)N[C@@H](CCCCN)C(=O)N[C@H](C(=O)N[C@@]1(C)CCCC=CCCC[C@@](C)(C(=O)N[C@@H](CC(N)=O)C(=O)N[C@@H](Cc2c[nH]cn2)C(=O)N[C@@H](CCC(=O)O)C(=O)N[C@@H](C)C(=O)N[C@@H](CCC(=O)O)C(=O)N[C@@H](CC(=O)O)C(=O)N[C@@H](CC(C)C)C(=O)N[C@@H](Cc2ccccc2)C(=O)N[C@@H](Cc2ccc(O)cc2)C(=O)N[C@@H](CCC(N)=O)C(=O)N[C@@]2(C)CCCC=CCCC[C@@](C)(C(=O)N[C@@H](Cc3c[nH]c4ccccc34)C(=O)N[C@@H](CC(N)=O)C(=O)N[C@@H](Cc3ccc(O)cc3)C(N)=O)NC(=O)[C@H](C)NC(=O)[C@H](CC(C)C)NC(=O)[C@H](CO)NC2=O)NC(=O)[C@H](CCCCN)NC(=O)[C@H](CC(=O)O)NC(=O)[C@H](CC(C)C)NC1=O)[C@@H](C)O` [P1st] (Ac-STIEEQAKT[S5]LDK[S5]NHEAEDLFYQ[S5]SLA[S5]WNY-NH2; staple 10-14, 25-29), the negative-log IC50 (pIC50) was 4.74 in the experiment on BA.1-like (Omicron) PVP (48 h); 4.59 in experiment [1] (48 h); 5.15 in experiment [2] (live virus (variant B.1.1, 4 h)). In experiment [3], the “Competition with other peptides (P1-FAM, SAP) for binding to S protein” value was “able to efficiently compete”.
As to “EDLFYQ [SAP6, short ACE2 peptide, 6 aa, described previously [23]]”, the “Binding of FAM-labeled peptide to immobilized full-length S protein” value (“Binding of FAM-labeled peptide” below) in experiment [4] is “reasonable binding”.
With “EDLFYQSSL [SAP2, short ACE2 peptide, 9 aa, described previously [23]]”, the “Binding of FAM-labeled peptide” value in experiment [4] is recorded as “reasonable binding”.
As to GKGDFRIL [SAP4, reference compound], the “Inhibitory activity on PVP (Wuhan S protein) entry at high concentration” value in experiment [1] (200 μM peptide, HEK/ACE2 cells, judged non-specific, result in words) is reported as “Marked inhibitory activity”. For the same compound, in experiment [2] (300 μM peptide, […], judged non-specific, result in words), the “Inhibitory activity on live SARS-CoV-2 infection of Vero cells at high concentration” value is “Inhibitory activity”. Also, the “Binding of FAM-labeled peptide” value in experiment [4] is given as “failed to bind”.
With “MSTIEEQAKTFLDKFNHEAEDLFYQSSLASWNYNTNITEENVQNMNNAGDKWSAFLKEQSTLAQMYPLQEIQNLTVKLQLQALQ [P2, recombinant 80 aa polypeptide comprising Helices I and II of ACE2, expressed in E. coli]”, in the experiment on BA.1-like (Omicron) PVP ([…], flow cytometry, result in words), the “Inhibition of PVP (BA.1-like S protein) entry into ACE2-overexpressing cells” value is “failed to inhibit PVP entry”. Also, the “Inhibition of PVP (Wuhan S protein) entry into ACE2-overexpressing cells” value in experiment [1] (peptide 0 to 56 μM (Figure 3), […], flow cytometry, result in words) is “could not inhibit entry”. In experiment [5], the “P2 binding to immobilized full-length S protein” value is given as “demonstrated their binding ability”.
As for “STIEEQAKTFLDAFNHAAAALFAQSSLASWNY [P1m, control P1 with alanine substitutions of key amino acids]”, the “Binding of FAM-labeled peptide” value in experiment [4] is on record as “failed to bind”.
For “TFLDKFNHEAEDLFYQ [SAP1, short ACE2 peptide, 16 aa, described previously [23]]”, the “Binding of FAM-labeled peptide” value in experiment [4] is “reasonable binding”.

These data come from PMC10179272, “SARS-CoV-2 Binding and Neutralization Properties of Peptides Derived from N-Terminus of Human ACE2” (International Journal of Molecular Sciences, 2023).
